This is an account of results in patent publication EP0443560A2, “HIV protease inhibitors” (priority 1990, dated 1991).

This test addresses T1, HIV protease (Human immunodeficiency virus type 1 group M subtype B, UniProt P04585).
T1 construct: HIV protease was expressed in E. coli [construct pBRT1 prt⁺; made in house; host or cells: E. coli
Briefly: Recombinant HIV Protease HPLC Assay. The format is biochemical. An excerpt: The procedure is based on the capacity of the test compound to inhibit enzymatic cleavage by HIV protease of a decapeptide (the substrate) having an amino acid sequence which includes a known HIV protease cleavage site of a HIV polyprotein; see H.G. Krausslich et al., Proc. Natl. Acad. Sci. USA, 86, 807 (1989). Details of this assay together with the results obtained for exemplified compounds of formula 1 are described in the examples hereinafter.
Recombinant HIV Protease HPLC Assay:
HIV protease was expressed in E. coli [construct pBRT1 prt⁺, see W.G. Farmerie et al., Science, 236, 305 (1987)], according to the following protocol: Unless stated otherwise, all solutions are aqueous solutions.
E. coli cells containing the pBRT1 prt⁺ plasmid were used to inoculate a seed culture media composed of Luria-Bertani Broth containing 100µg/mL of ampicillin. Flasks were incubated at 37° under agitation for 17 h. Production flasks containing sterile M9 broth, supplemented with 100µg/ml of ampicillin, were inoculated at a level of 1% (v/v) using the seed culture described above. Total volume in each production flask was 500 mL in a 2 L Erlenmeyer flask. Flasks were incubated at 37° under agitation until a cell concentration corresponding to an optical density (λ = […]) of 0.6 was reached (no dilution). This time span was routinely 3-4 h. Flasks were then supplemented with 5mM isopropylthiogalactoside (IPTG, Research Organics, Cleveland, Ohio, USA) and incubation was continued until the cell concentration reached an optical density of 0.2 at 16-fold dilution. Flasks were then supplemented with 1mM phenylmethylsulfonyl fluoride (PMSF) and rapidly chilled to 4°. The bacterial cells were recovered by centrifugation at 4°. The wet pellet was stored at -70°.
All steps below were performed at 4° unless otherwise indicated. Thawed cells were mixed with buffer A [50 mM tris(hydroxymethyl)[…] HCl(Tris-HCl, pH 7.4); 0.6 mM ethylenediaminetetraacetic acid (EDTA); 0.375 M NaCl, 0.2% Nonidet P-40 ® (BDH Chemicals Ltd., Poole, UK); 1mM PMSF], at a ratio of one part cells to nine parts buffer A. Diatomaceous earth (Celite 545 ® , John Manville, Lompoc, CA, USA) was added at a ratio of two parts to one part of wet cell weight. The resulting slurry was homogenized at high speed (ca. 20,000 rpm) on a Waring ® industrial blender for 8 x 15 sec. pulses. Cell debris/Celite ® was collected by centrifugation and the resulting pellet was extracted with 4.5 parts of buffer A to one part wet solids using the homogenization procedure described above. Supernatants from both homogenization steps were combined and soluble protein was precipitated by the addition of solid (NH₄)₂SO₄ to yield a final concentration of 75% saturation. This mixture was agitated for 60 min and the precipitate was recovered by centrifugation. The resulting pellet was suspended in buffer B [50mM Tris-HCl, pH 8; 30 mM NaCl; 1 mM DL-dithiothreitol(DTT); 1 mM EDTA; 1 mM PMSF; 10% glycerol], and dialyzed for 18h against the same buffer.
An aliquot of the dialyzed extract containing 150 mg of the protein was loaded onto a Sephadex A25 ® anion exchange column. (Pharmacia, Uppsala, Sweden) with bed dimensions of 70 cm length and 2.5 cm diameter. The sample was eluted isocratically with buffer B at a linear flow rate of 10 cm/h. Fractions containing HIV protease activity (see below for assay description) were combined, and soluble protein was precipitated by the addition of saturated aqueous (NH₄)₂SO₄ to yield a total (NH₄)₂SO₄ concentration of 85% saturation. Precipitated protein was removed by centrifugation and the resulting pellet was dissolved in buffer C [50 mM 2-(4-morpholino)ethanesulfonic acid (MES), pH 5.5; 150 mM NaCl; 1 mM DTT; 1 mM EDTA; 10% glycerol). This preparation was dialyzed for 18h against buffer C, and then frozen at -70°. All crude extracts were purified by chromatography in aliquots containing 150 mg of protein in the same manner as described above. […]

Where [1] appears, read: recombinant HIV protease HPLC assay, values in parenthesis in text, read-out: IC₅₀.
Setting [2] is: read-out: IC₅₀, recombinant HIV protease HPLC assay, values in parenthesis in text.

pIC50: −log10 of the molar value. Like-named read-outs stand apart in the source and are kept apart here.

As to `COC(=O)CCC(NC(=O)CC(O)C(CC1CCCCC1)NC(=O)OC(C)(C)C)C(=O)NCCc1ccc(SC)cc1` (stereo not drawn) [Boc-ACHPA-Glu(OMe)-NHCH₂CH₂-(4MeS-Ph)], the pIC50 under setting [1] was 7.04.
In the case of `COC(=O)CC[C@H](NC(=O)C[C@H](O)[C@H](CC1CCCCC1)NC(=O)OC(C)(C)C)C(=O)NCCCc1ccc(F)cc1` [Boc-ACHPA-Glu(OMe)-NHCH₂CH₂CH₂-(4F-Ph)], the pIC50 under setting [2] is 7.08.
On the same count and under the same terms, in the case of `COC(=O)CC[C@H](NC(=O)C[C@H](O)[C@H](CC1CCCCC1)NC(=O)OC(C)(C)C)C(=O)NCCOc1ccccc1Cl` [Boc-ACHPA-Glu(OMe)-NHCH₂CH₂O-(2Cl-Ph)] it was 6.85.
In the case of `COC(=O)CC[C@H](NC(=O)C[C@H](O)[C@H](CC1CCCCC1)NC(=O)OC(C)(C)C)C(=O)NCCOCc1ccccc1` [Boc-ACHPA-Glu(OMe)-NHCH₂CH₂OBzl], under setting [1], the pIC50 is 6.59.
Regarding `CC(C)(C)OC(=O)N[C@@H](CC1CCCCC1)[C@@H](O)CC(=O)N[C@@H](CCC(=O)O)C(=O)NCCc1ccc(Cl)cc1` [Boc-ACHPA-Glu-NHCH₂CH₂-(4-Cl-Ph)], the pIC50 under setting [2] is 7.92.
On to `COc1ccc(CCNC(=O)[C@H](CCC(=O)O)NC(=O)C[C@H](O)[C@H](CC2CCCCC2)NC(=O)OC(C)(C)C)cc1` [Boc-ACHPA-Glu-NHCH₂CH₂-(4-MeO-Ph)], for which the pIC50 under setting [1] was 7.48.
Still for that read-out and setting: the result for `CC(C)(C)OC(=O)N[C@@H](CC1CCCCC1)[C@@H](O)CC(=O)N[C@@H](CCC(=O)O)C(=O)NCCCc1ccco1` [Boc-ACHPA-Glu-NHCH₂CH₂CH₂-(2-furyl)] reads 7.60.
On the same count and under the same terms, in the case of `CC(C)(C)OC(=O)N[C@@H](CC1CCCCC1)[C@@H](O)CC(=O)N[C@@H](CCC(=O)O)C(=O)NCCCc1cccs1` [Boc-ACHPA-Glu-NHCH₂CH₂CH₂-(2-thienyl)] it was 7.48.
As to `CC(C)(C)OC(=O)N[C@@H](CC1CCCCC1)[C@@H](O)CC(=O)N[C@@H](CCC(=O)O)C(=O)NCCCc1ccc(F)cc1` [Boc-ACHPA-Glu-NHCH₂CH₂CH₂-(4F-Ph)], the pIC50 under setting [2] is 8.25.
As to `CC(C)(C)OC(=O)N[C@@H](CC1CCCCC1)[C@@H](O)CC(=O)N[C@@H](CCC(=O)O)C(=O)NCCOc1ccccc1Cl` [Boc-ACHPA-Glu-NHCH₂CH₂O-(2Cl-Ph)], the pIC50 under setting [2] was 8.18.
With `CC(C)(C)OC(=O)NC(CC1CCCCC1)C(O)CC(=O)NC(CCC(=O)O)C(=O)NCCOCc1ccccc1` (stereo not drawn) [Boc-ACHPA-Glu-NHCH₂CH₂OBzl], the pIC50 under setting [1] is 8.15.
On the same count and under the same terms, the result for `CC(C)(C)OC(=O)N[C@@H](CC1CCCCC1)[C@@H](O)CC(=O)N[C@@H](CCC(=O)O)C(=O)NCCOc1ccccc1` [Boc-ACHPA-Glu-NHCH₂CH₂OPh] reads 8.07.
In the case of `CC(C[C@H](NC(=O)C[C@H](O)[C@H](CC1CCCCC1)NC(=O)OC(C)(C)C)C(=O)NCCCc1ccccc1)C(=O)O` (stereo partly drawn) [Boc-ACHPA-{(S)-NHCH[CH₂CH(CH₃)COOH]}C(O)-NHCH₂CH₂CH₂Ph], the pIC50 under setting [1] is 7.74.
As for `COC(=O)CC[C@H](NC(=O)CC[C@H](O)[C@H](CC1CCCCC1)NC(=O)OC(C)(C)C)C(=O)NCCCc1ccccc1` [Boc-ChaΨ[CH(OH)CH₂]Gly-Glu(OMe)-NHCH₂CH₂CH₂Ph], the pIC50 under setting [1] was 6.22.
Still for that read-out and setting: in the case of `CC(C)(C)OC(=O)N[C@@H](CC1CCCCC1)[C@@H](O)CCC(=O)N[C@@H](CCC(=O)O)C(=O)NCCCc1ccccc1` [Boc-ChaΨ[CH(OH)CH₂]Gly-Glu-NHCH₂CH₂CH₂Ph] it was 7.85; in that of `COC(=O)CC[C@H](NC(=O)C[C@H](O)[C@@H](NC(=O)OC(C)(C)C)[C@@H](O)C1CCCCC1)C(=O)NCCCc1ccccc1` [Boc-HACHPA-Glu(OMe)-NHCH₂CH₂CH₂Ph], 6.92.
Still for that read-out and setting: in the case of `CC(C)(C)OC(=O)N[C@H](CN[C@@H](CC1CC1)C(=O)N[C@@H](CCC(=O)O)C(=O)NCCc1ccccc1)Cc1ccccc1` [Boc-PheΨ[CH₂NH]Cpa-Glu-NHCH₂CH₂Ph] it was 7.80.
The same measure, in the same setting: in the case of `CCCC[C@H](NC[C@H](Cc1ccccc1)NC(=O)OC(C)(C)C)C(=O)N[C@@H](CCC(=O)O)C(=O)NCCCc1ccccc1` [Boc-PheΨ[CH₂NH]Nle-Glu-NHCH₂CH₂CH₂Ph] it was 7.92.
`CC(C)[C@H](NC[C@H](Cc1ccccc1)NC(=O)OC(C)(C)C)C(=O)N[C@@H](CCC(=O)O)C(=O)NCCCc1ccccc1` [Boc-PheΨ[CH₂NH]Val-Glu-NHCH₂CH₂₂CH₂Ph]: under setting [1], the pIC50 was 7.52.
Same read-out and setting: the result for `CC(=O)N[C@@H](CC1CCCCC1)[C@@H](O)CC(=O)N[C@@H](CCC(=O)O)C(=O)NCCCc1ccccc1` [CH₃C(O)-ACHPA-Glu-NHCH₂CH₂CH₂Ph] reads 6.80.
In the case of `CC(C)C[C@H](NC[C@H](Cc1ccccc1)NC(=O)OC(C)(C)C)C(=O)N[C@@H](CCC(=O)O)C(=O)NCCCc1ccccc1` [Example 1, Boc-PheΨ[CH₂NH]Leu-Glu-NHCH₂CH₂CH₂Ph], the pIC50 was 7.44.
For the compound `COC(=O)CCC(NC(=O)CC(O)C(CC1CCCCC1)NC(=O)OC(C)(C)C)C(=O)NCCCc1ccccc1` (stereo not drawn) [Example 5, Boc-ACHPA-Glu(OMe)-NHCH₂CH₂CH₂Ph], the pIC50 was 6.96.
For the compound `CCC(CC)C(=O)NC(CC1CCCCC1)C(O)CC(=O)NC(CCC(=O)O)C(=O)NCCc1ccccc1` (stereo not drawn) [Example 6, (C₂H₅)₂CHC(O)-ACHPA-Glu-NHCH₂CH₂Ph], the pIC50 is 7.03.
Still for that read-out and setting: the result for `O=C(O)CCC(NC(=O)CC(O)C(CC1CCCCC1)NC(=O)C1CCCCC1)C(=O)NCCc1ccccc1` (stereo not drawn) [Example 12, (Cyclohexylcarbonyl)-ACHPA-Glu-NHCH₂CH₂Ph] reads 6.89; that for `CCCCCCCCNC(=O)C(CCC(=O)O)NC(=O)CC(O)C(CC1CCCCC1)NC(=O)OC(C)(C)C` (stereo not drawn) [Example 13, Boc-ACHPA-Glu-NH(CH₂)₇CH₃], 7.40.
Same read-out and setting: in the case of `CC(C)(C)OC(=O)NC(CC1CC1)C(O)CC(=O)NC(CCC(=O)O)C(=O)NCCCc1ccccc1` (stereo not drawn) [Example 18, Boc-ACPPA-Glu-NHCH₂CH₂CH₂Ph] it was 6.74; in that of `CSc1ccc(CCNC(=O)C(CCC(=O)O)NC(=O)CC(O)C(CC2CCCCC2)NC(=O)OC(C)(C)C)cc1` (stereo not drawn) [Example 22, Boc-ACHPA-Glu-NHCH₂CH₂-(4MeS-Ph)], 7.74; in that of `CC(C)(C)OC(=O)NC(CC1CCCCC1)C(O)CC(=O)NC(CCC(=O)O)C(=O)OCCCc1ccccc1` (stereo not drawn) [Example 25, Boc-ACHPA-Glu-OCH₂CH₂CH₂Ph], 7.07.
The same measure, in the same setting: the result for `CC(C)(C)NC(=O)NC(CC1CCCCC1)C(O)CC(=O)NC(CCC(=O)O)C(=O)NCCCc1ccccc1` (stereo not drawn) [Example 26, (CH₃)₃CNHCO-ACHPA-Glu-NHCH₂CH₂CH₂Ph] reads 6.92; that for `CC(C)(C)OC(=O)NC(CC1CCCCC1)C(O)CC(=O)NC(CCC(=O)O)C(=S)NCCCc1ccccc1` (stereo not drawn) [Example 31, Boc-ACHPA-GluΨ[CSNH]-NHCH₂CH₂CH₂Ph], 6.42; that for `CC(C)(C)OC(=O)NC(C(O)CC(=O)NC(CCC(=O)O)C(=O)NCCCc1ccccc1)C(O)C1CCCCC1` (stereo not drawn) [Example 33, Boc-HACHPA-Glu-NHCH₂CH₂CH₂Ph], 8.11.
Turning to `COC(=O)CC[C@H](NC(=O)C[C@H](O)[C@H](CC1CCCCC1)NC(=O)OC(C)C)C(=O)NCCOCc1ccccc1` [Ipoc-ACHPA-Glu(OMe)-NHCH₂CH₂OBzl], the pIC50 under setting [1] was 6.82.
On the same count and under the same terms, in the case of `CC(C)OC(=O)N[C@@H](CC1CCCCC1)[C@@H](O)CC(=O)N[C@@H](CCC(=O)O)C(=O)NCCCc1ccccc1` [Ipoc-ACHPA-Glu-NH-CH₂CH₂CH₂Ph] it was 8.20; in that of `COC(=O)N[C@@H](CC1CCCCC1)[C@@H](O)CC(=O)N[C@@H](CCC(=O)O)C(=O)NCCCc1ccccc1` [Moc-ACHPA-Glu-NHCH₂CH₂CH₂Ph], 7.82.
On the same count and under the same terms, the result for “Boc(4F-Phe)Ψ[CH₂NH]Cpa-Glu-NHCH₂CH₂-(4F-Ph)” reads 7.82.
Same read-out and setting: in the case of Boc-AHDHA-Glu-NHCH₂CH₂CH₂Ph it was 7.49.
